From ChEMBL document CHEMBL1201862, “PubChem BioAssay data set” (2004)
Activity calls are given as the source filed them.

Tests used:
Estrogen receptor beta = Estrogen receptor beta (Homo sapiens, UniProt Q92731);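 further: recombinant ER-beta bound to coactivator SRC1 peptide in presence of estradiol agonist; inhibitors block coactivator peptide binding and lower the FRET signal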
cells [1] = format: functional, cell-based
cells [2] = format: functional, cell-based; remark: listed apart in the source
Prothrombin = Prothrombin (Homo sapiens, UniProt P00734); experiment: Thrombin 1536 HTS Dose Response Confirmation. [Related pubchem assays: 1046 (Thrombin 1536 HTS; hits were confirmed in this assay)]; format: functional
[3] = molecular target: T1, Luciferin 4-monooxygenase (Photinus pyralis, UniProt P08659); experiment: Counter Screen for Luciferase-based Assay Positives. [Related pubchem assays: 620, 618, 411 ]
HT-1080 = experiment: HT1080 cell viability loss – fluorescence readout (AID 620); format: functional, cell-based; details: Homo sapiens
HeLa = experiment: ATP-based viability loss in HeLa cells – cell-based, CellTiter-Glo luminescence, cherry-pick samples, cytotoxicity control for MITF activator project, dose response (AID 540259); format: functional; details: Homo sapiens
Major prion protein = Major prion protein (Homo sapiens, UniProt P04156); format: functional, cell-based
cells [4] = experiment: cells
[5] = molecular target: T2, Replicative DNA helicase DnaB (Mycobacterium tuberculosis, UniProt P9WMR3); experiment: DnaB intein splicing inhibitors, dose response, biochemical, cell-free fluorescence (AID 449749); format: functional
T2 sequence (P9WMR3 whole entry): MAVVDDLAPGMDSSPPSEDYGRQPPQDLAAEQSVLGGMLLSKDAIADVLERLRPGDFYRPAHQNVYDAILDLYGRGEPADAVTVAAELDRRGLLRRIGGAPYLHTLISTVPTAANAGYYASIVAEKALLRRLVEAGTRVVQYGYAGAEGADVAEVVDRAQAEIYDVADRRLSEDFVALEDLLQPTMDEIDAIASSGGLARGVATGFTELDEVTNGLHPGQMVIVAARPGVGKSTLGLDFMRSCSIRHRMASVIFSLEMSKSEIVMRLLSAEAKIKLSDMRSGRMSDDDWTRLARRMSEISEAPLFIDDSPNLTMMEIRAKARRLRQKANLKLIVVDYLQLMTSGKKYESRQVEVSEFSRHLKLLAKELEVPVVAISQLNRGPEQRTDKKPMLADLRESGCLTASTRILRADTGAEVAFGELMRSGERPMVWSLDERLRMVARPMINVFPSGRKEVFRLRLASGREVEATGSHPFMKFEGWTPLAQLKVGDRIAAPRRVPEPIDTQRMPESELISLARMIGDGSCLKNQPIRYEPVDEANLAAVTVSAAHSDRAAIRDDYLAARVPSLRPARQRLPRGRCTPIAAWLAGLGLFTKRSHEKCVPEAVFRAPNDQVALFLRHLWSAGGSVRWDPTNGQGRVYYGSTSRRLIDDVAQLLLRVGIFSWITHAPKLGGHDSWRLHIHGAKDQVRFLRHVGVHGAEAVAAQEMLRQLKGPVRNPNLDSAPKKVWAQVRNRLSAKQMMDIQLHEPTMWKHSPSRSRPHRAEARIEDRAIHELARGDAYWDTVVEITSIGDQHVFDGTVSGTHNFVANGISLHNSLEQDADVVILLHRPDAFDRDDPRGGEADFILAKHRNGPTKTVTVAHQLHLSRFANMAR

Protein RecA = molecular target: T3, Protein RecA (Mycobacterium tuberculosis, UniProt P9WHJ3); experiment: Fluorescence Cell-Free Homogeneous Dose Retest to Identify Inhibitors of RecA-Intein Splicing Activity. [Related pubchem assays (depositor defined):AID2097, AID2223, AID489010, AID492950]; format: functional
T3 sequence (P9WHJ3 whole entry): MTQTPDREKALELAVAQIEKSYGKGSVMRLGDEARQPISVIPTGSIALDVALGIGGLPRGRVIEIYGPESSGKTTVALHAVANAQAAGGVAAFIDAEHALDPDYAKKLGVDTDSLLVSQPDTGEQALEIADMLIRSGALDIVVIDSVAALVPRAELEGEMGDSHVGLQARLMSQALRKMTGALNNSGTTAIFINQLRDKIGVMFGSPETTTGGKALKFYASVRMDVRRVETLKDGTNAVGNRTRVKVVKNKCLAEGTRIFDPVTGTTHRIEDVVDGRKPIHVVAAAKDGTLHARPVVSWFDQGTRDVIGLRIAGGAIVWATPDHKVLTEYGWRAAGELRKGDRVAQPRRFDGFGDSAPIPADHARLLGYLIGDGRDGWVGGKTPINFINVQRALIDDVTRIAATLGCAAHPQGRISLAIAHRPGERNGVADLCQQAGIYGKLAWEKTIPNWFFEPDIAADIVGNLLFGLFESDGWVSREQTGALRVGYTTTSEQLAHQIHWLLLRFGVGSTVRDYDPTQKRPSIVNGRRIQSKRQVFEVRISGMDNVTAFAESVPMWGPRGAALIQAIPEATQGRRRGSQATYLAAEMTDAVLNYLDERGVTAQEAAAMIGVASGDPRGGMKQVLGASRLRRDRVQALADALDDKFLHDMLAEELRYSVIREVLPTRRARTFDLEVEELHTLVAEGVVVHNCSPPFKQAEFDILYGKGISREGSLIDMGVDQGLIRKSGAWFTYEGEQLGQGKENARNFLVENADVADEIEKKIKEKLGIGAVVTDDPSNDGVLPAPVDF

[6] = NIH3T3 cell viability loss – ATP luminescence, mouse fibroblasts, counter-screen, dose response (AID 2010); format: functional, cell-based;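 further: cells exposed to compound for about 90 hours before reading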
[7] = Trypanosoma cruzi growth suppression in host cells – NIH3T3 host cells, beta-gal luminescence, confirmation (AID 2044); format: functional, cell-based;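 further: intracellular parasites grown in NIH/3T3 mouse fibroblasts as host cells; luminescent beta-galactosidase reporter signal from transgenic T. cruzi replicating inside host cells; inhibitors lower the luminescence signal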
Leucine aminopeptidase = molecular target: T4, Leucine aminopeptidase (Plasmodium falciparum 3D7, UniProt Q8IL11); experiment: P. falciparum M17LAP inhibitors, primary screen, biochemical, fluorogenic H-Leu-NHMec substrate, 1536-well (AID 1619); format: functional
T4 sequence (Q8IL11 whole entry): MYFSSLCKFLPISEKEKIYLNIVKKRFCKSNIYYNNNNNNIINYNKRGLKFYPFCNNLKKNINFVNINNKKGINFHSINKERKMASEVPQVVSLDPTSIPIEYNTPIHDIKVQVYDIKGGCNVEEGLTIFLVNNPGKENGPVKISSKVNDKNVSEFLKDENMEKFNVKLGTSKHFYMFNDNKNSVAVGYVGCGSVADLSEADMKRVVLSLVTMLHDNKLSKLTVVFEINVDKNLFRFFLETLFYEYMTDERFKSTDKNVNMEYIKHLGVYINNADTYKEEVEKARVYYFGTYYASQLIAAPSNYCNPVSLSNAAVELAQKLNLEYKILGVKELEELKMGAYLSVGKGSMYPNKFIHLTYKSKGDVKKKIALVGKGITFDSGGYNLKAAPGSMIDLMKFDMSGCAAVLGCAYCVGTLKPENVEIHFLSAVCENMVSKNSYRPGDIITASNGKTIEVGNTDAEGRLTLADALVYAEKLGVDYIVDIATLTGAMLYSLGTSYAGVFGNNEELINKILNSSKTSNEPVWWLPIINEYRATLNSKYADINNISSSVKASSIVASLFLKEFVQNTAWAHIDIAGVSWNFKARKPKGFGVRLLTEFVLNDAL

[8] = molecular target: Dual specificity tyrosine-phosphorylation-regulated kinase 1A (Rattus norvegicus, UniProt Q63470); format: biochemical, Homo sapiens
[9] = THP-1 cell cytotoxicity, dose response, cytotoxicity control for non-replicating M. tuberculosis project (AID 489025); format: functional
[10] = HepG2 cell cytotoxicity, dose response, cytotoxicity control for non-replicating M. tuberculosis project (AID 489018); format: functional; details: Mycobacterium tuberculosis
[11] = molecular target: T1, Luciferin 4-monooxygenase; experiment: inhibition of purified Photinus pyralis luciferase – biochemical, luminescence, dose response (AID 1891)
[12] = blockade of melanocortin 4 receptor signaling – cell-based, plate reader, cherry pick, counter-screen for LGR2 antagonist project, dose response (AID 743444); format: functional;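 further: transfected HEK 293 cells stimulated with alpha-MSH peptide; potency of inhibitors of the alpha-MSH evoked signal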
[13] = A549 cell cytotoxicity, dose response, cytotoxicity control, plate reader, cherry-pick, antagonist series (AID 743412); format: functional, cell-based
[14] = toxicity toward HepG2 liver cells – cell-based, plate reader, cherry-pick, antagonist series, cytotoxicity control, dose response (AID 743416); format: functional
[15] = blockers of bursicon-stimulated LGR2 cAMP reporter – cell-based, HEK293, CRE-luciferase reporter, cherry pick, set 2, dose response (AID 743343); format: functional;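 further: transfected cells were stimulated with diluted bursicon conditioned medium after compound addition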
[16] = Luminescence Cell-Based Dose Confirmation HTS to Identify Inhibitors of Platelet Dense Granule Release. [Related pubchem assays: 1663 (Primary HTS), 1678 (Summary of Project)]; format: functional

T1 sequence (P08659 whole entry): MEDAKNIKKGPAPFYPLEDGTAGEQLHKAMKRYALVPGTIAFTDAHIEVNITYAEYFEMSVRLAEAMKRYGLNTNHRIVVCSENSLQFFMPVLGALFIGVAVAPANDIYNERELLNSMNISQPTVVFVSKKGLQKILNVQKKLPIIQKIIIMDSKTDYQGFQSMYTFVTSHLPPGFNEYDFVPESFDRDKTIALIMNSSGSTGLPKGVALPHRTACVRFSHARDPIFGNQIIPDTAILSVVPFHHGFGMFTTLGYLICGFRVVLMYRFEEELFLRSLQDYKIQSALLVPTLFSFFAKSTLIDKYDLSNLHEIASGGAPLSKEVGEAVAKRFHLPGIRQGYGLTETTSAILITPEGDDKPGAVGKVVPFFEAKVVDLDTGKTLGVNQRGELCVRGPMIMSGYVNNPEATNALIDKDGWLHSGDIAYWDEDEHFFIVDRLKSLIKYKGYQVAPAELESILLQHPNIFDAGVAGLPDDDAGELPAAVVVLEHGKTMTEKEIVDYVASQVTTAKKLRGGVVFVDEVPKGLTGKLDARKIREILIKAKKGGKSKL
Estrogen receptor beta, sequence (Q92731 whole entry): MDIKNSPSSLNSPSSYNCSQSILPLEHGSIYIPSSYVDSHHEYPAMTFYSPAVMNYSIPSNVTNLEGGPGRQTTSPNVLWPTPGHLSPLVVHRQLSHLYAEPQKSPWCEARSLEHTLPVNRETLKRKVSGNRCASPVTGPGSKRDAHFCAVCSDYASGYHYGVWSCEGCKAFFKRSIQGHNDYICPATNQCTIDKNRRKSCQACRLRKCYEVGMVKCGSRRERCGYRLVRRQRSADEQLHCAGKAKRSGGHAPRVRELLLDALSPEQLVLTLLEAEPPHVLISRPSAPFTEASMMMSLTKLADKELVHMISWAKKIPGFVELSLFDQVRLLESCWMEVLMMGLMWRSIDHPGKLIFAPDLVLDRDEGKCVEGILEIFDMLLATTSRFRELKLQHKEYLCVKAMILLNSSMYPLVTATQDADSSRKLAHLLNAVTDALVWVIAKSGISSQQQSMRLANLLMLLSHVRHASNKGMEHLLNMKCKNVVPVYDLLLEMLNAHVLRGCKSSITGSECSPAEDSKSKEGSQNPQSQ

Structure (SMILES): O=C1C2C3C=CC(C3)C2C(=O)N1c1cccc2cccnc12 (configuration not stated)
- IC50 (Estrogen receptor beta): 21.4 µM (active)

Structure (SMILES): CC(Oc1ccc2ccc(=O)oc2c1)C(=O)NCCN1CCOCC1 (configuration not stated)
- EC50 (cells [1]): > 350 µM (not active)
- EC50 (cells [2]): > 350 µM (not active)

Structure (SMILES): CCn1cc(C(=O)NCc2ccc(Cl)cc2)c(=O)c2cc(S(=O)(=O)N3CCOCC3)ccc21
- IC50 (Prothrombin): 8.07 µM (active)

Structure (SMILES): Cc1ccc(C(=O)Nc2nc3c(s2)CCCC3)o1
- EC50 [3]: > 100 µM (not active)
- EC50 (HT-1080): > 50 µM (not active)

Structure (SMILES): C/C(=N\OCc1ccc(C#N)cc1)c1ccc(S(=O)(=O)N(C)C)cc1
- AC50 (HeLa): 147 µM (active)

Structure (SMILES): Cc1cnc(NC(=O)c2cc(S(=O)(=O)N(C)C)ccc2N2CCCC2)s1
- IC50 (Major prion protein): 2.87 µM (active)
- IC50 (cells [4]): > 138 µM (inactive)

Structure (SMILES): Nc1nc(C(=O)N2CCOCC2)nn1C(=O)c1ccc(Cl)cc1
- AC50 [5]: 12.5 µM (active)
- EC50 (Protein RecA): 23.4 µM (active)
- IC50 (Prothrombin): 0.00512 µM (active)

Structure (SMILES): Cc1ccc(NCC(=O)c2ccc(C)cc2)cc1
- EC50 [6]: > 60 µM (not active)
- EC50 [7]: 4.53 µM (active)
- AC50 (HeLa): 103 µM (active)

Structure (SMILES): O=C(Nc1nc2ccccc2[nH]1)c1ccccc1
- EC50 [3]: < 0.2 µM (active)
- EC50 (HT-1080): > 50 µM (not active)

Structure (SMILES): O=C(O)COc1ccc(/C=C/c2ccc3cccc([N+](=O)[O-])c3n2)cc1
- IC50 (Leucine aminopeptidase): 23.2 µM (active)
- AC50 [8]: 6.6 µM (active)

Structure (SMILES): COc1ccc(C(=O)NNC2=C(C(=O)C(F)(F)F)CCC2)cc1
- CC50 [9]: 18.1 µM (active)
- CC50 [10]: > 20 µM (active)

Structure (SMILES): CC(C)CC(NC(=O)c1ccccc1NC(=O)c1ccccc1)C(=O)O (configuration not stated)
- EC50 (cells [1]): > 350 µM (not active)
- EC50 (cells [2]): > 350 µM (not active)

Structure (SMILES): CCCc1ccc(-c2ccc(F)c(N)c2)nc1
- EC50 [11]: 6.33 µM (active)
- EC50 [3]: 1.58 µM (active)
- EC50 (HT-1080): > 50 µM (not active)
- AC50 [12]: 4.06 µM (active)
- AC50 [13]: > 52 µM (inactive)
- AC50 [14]: > 52 µM (inactive)
- AC50 [15]: 4.32 µM (active)
- EC50 [16]: 6.17 µM (active)

Structure (SMILES): COc1ccc(C2=NN(c3ccccc3)C(c3ccc(OC)c(OC)c3)C2)cc1 (configuration not stated)
- AC50 (HeLa): 52 µM (active)
